Laboratory results reported in patent US20090239884A1, “Methods of Treating Inflammation” (priority 2006, published 2009).
“Also recorded” adds a separate entry of the source. Like-named read-outs stand apart in the source and are kept apart here. Values belong to the compound of their own block, whether it stands above or below them.

Tests used:
PDE4 [1] = test: PDE4 inhibition; type: biochemical
[2] = tested on: Con A-activated splenocytes on TNF-α activated bEnd.3 endothelial cells; test: T cell-endothelial cell adhesion assay (Example 13); type: cell-based, mouse; conditions: for ability to reduce adhesion of activated T cells to endothelial cells: IBMX 300 μM, piclamilast 1 μM, motapizone 1 μM; for reversal of the inhibitory effect of DP on T cell adhesion: DP 100 μM with adenosine deaminase 1 U/ml or CXCL12 250 ng/ml
Procedure: (§1) Cell treatment. Confluent bEnd.3 monolayers were incubated with 200 ng/ml TNF-α (Peprotech, Rocky Hill, N.J.) at 37° c. for 2 hours. […] Christoff Zitt and Armin Hatzelmann (Altana Pharma, Konstanz, Germany). Con A-activated splenocytes or CD4^+CD25^− T cells activated with plate-bound anti-CD3 mAb were treated with the same reagents for 20, 45, or 90 minutes.
Adhesion assays. Adhesion assays were performed in 24-well plates with a confluent layer of bEnd.3 cells. Splenocytes or CD4^+CD25^− T cells were labeled with 5 μM Calcein AM (Molecular Probes, Eugene, Oreg.) and treated as described above. 7×10^5 pretreated splenocytes or CD4^+CD25^− T cells per well were incubated on bEnd.3 cells in RPMI media. After 30 minutes at 37° C., non-adherent cells were removed by washing with D-PBS. For analysis, 7×10^5 Calcein AM labeled splenocytes or CD4^+CD25^− T cells were used as positive controls. Fluorescence was read in a Victor 3v microplate reader (Perkin Elmer, Waltham, Mass.) with a fluorescein filter set. The percentage of adherent T cells, i.e. labeled cells resistant to detachment, was calculated as total fluorescence of well divided by fluorescence of 7×10^5 Calcein AM labeled cells multiplied by 100.
In FIGS. 20A-20B, splenocytes from C57BL/6 mice were activated with Con A (3 μg/ml) for 48 hours followed by a 45 minute incubation with (A) IBMX (300 μM), piclamilast (Picl, 1 μM) or DP (100 μM), (B) dibutryl cAMP (Db-cAMP, 500 μM) or DP in the presence or absence of adenosine deaminase (AD, 1 U/ml) or vehicle (0.1% DMSO). bEnd.3 endothelial cells were activated for 2 hours with TNF-α (200 ng/ml) and incubated with the same reagents for the final 45 minutes before splenocytes were added to the bEnd.3 cells for the adhesion assay. The data are presented as the mean±SEM percentage of splenocytes which were resistant to detachment. Results are representative of at least three independent experiments run in triplicate (*p<0.05, **p<0.001; one way ANOVA followed by Bonferroni t-test).

[3] = tested on: Con A activated splenocytes on bEND.3 brain derived endothelial cell monolayers; test: adhesion of Con A activated splenocytes to bEND.3 monolayer (Example 4); type: cell-based, mouse; conditions: piclamilast 1 μM; static assay
Procedure: The hypothesis was first tested using a series of experiments determining T cell adhesion to vascular endothelial cells. Confluent bEND.3 brain derived endothelial cell monolayers were pretreated with 100 ng/ml TNF-α. […] Splenocytes were allowed to adhere for 30 min at 37° C. without shaking after which nonadherent cells were removed by washing the wells 4× with prewarmed D-PBS. For analysis, 7×10^5 calcein AM labeled cells were added to an empty well as a representation of maximal possible fluorescence. The fluorescence of each well was read by a Victor 3v microplate reader with a fluorescein filter set. Background fluorescence (medium only) was subtracted from each well and percentage of adherent cells that is resistant to detachment under the conditions of washing the wells was calculated as fluorescence of well in percent of maximal fluorescence (without washing).

[4] = tested on: Con A-stimulated mouse splenocytes; test: transwell chemotaxis assay in response to CXCL12, Con A-stimulated splenocytes; type: cell-based; conditions: for effect on CXCL12-induced migration: forskolin 25 μM, motapizone 10 μM, piclamilast 1 μM
Procedure: (§2) Isolation of murine splenocytes. Splenocytes were isolated from 6-8 week old C57BL/6 mice obtained from Jackson Laboratories (Bar Harbor, Me.). Spleens were removed and a single-cell suspension prepared using 40 μm cell strainers (Fisher Scientific). Cells were washed with RPMI 1640 medium supplemented with 5% fetal bovine serum, 2 mM L-glutamine, 100 U/ml penicillin and […] (all from GIBCO). Red blood cells were lysed using standard lysis buffer (0.15M NH4Cl, 10mM KHCO3, 0.1 mM EDTA PH 7.4). Cells were then washed and used in chemotaxis assays either as unstimulated cells or after stimulation with Con A ([…]) as indicated.
(§3) Preparation of Test Reagents. […] This concentration of DMSO had no effect on migration of splenocytes in the presence or absence of CXCL12. CXCL12 was prepared as a 100 μg/ml stock solution in PBS+0.1% BSA, Con A was prepared as a stock of 2.5 mg/ml in PBS, and dibutyryl cAMP and Rp-cAMPS were prepared as 50 mM stock solutions in water, and these reagents were diluted directly into the chemotaxis assays.
(§4) Chemotaxis Assay. Chemotaxis assays were done in 24-well transwell plates with a pore size of 5 μm (Costar, Corning). Splenocytes were placed in medium at a concentration of 3×10^6 cells/ml. Where test agents were used, splenocytes were pretreated with the agent or vehicle for 45 to 60 min, following which 100 μl of the splenocyte suspension was placed into the upper chamber of transwell plates, and the lower chamber was filled with 600 μl of medium. When added to induce migration, CXCL12 (250 ng/ml) was added to the lower chamber only. Other test reagents were added as indicated to both the upper and lower chambers. After 4 hours of incubation at 37° C. in 5% CO2, transwell inserts were gently removed and the number of cells that migrated into the lower chamber were counted by withdrawing 500 μl of lower chamber medium, mixing it with 10 ml of buffer and counting the cells on a Coulter Counter (Beckman Coulter Z series). Where results are expressed as % of CXCL12-stimulated migration, this was calculated as follows: (cells migrated in presence of CXCL12 and test reagent—cells migrated in medium alone)/(cells migrated in presence of CXCL12-cells migrated in medium alone)×100. Experimental points for all chemotaxis assays were performed in triplicate.
(§5) Splenocytes isolated from mice were assayed for migration in response to CXCL12 (250 ng/ml), either directly (unstimulated) or following 48 hr of incubation with 3 μg/ml Con A (stimulated), as described in Methods. To test for effects of dibutyryl cAMP, cells were pretreated with dibutyryl cAMP (500 μM) for 45-60 min prior to beginning the chemotaxis assay, and the assays were conducted with dibutyryl cAMP (db-cAMP) present (500 μM) in both the upper and lower chambers of the transwell plates. Data plotted are derived from a single experiment performed in triplicate. *p<0.001; **p<0.02.

PDE4 [5] = conditions: cited from earlier work
[6] = tested on: unstimulated mouse splenocytes; test: transwell chemotaxis assay in response to CXCL12, unstimulated splenocytes; type: cell-based
Procedure: as §2, §3, §4, §5

[7] = tested on: peripheral blood mononuclear cells; conditions: cited from earlier work
T cells = conditions: cited from earlier work
PDE3 = conditions: read-out: Potency (IC50) PDE3; cited from earlier work
bEnd.3 endothelial cells = test: qRT-PCR gene expression in TNF-α activated bEnd.3 endothelial cells; type: cell-based, mouse; conditions: 45 minutes, DP 100 μM, dibutryl cAMP 500 μM
Procedure: Quantitative real-time RT-PCR analysis. 10 ng cDNA, or 2 μl cDNA for LCM studies, was amplified by qRT-PCR in a 25 μl reaction using SYBR Green PCR Master Mix (Applied Biosystems, Foster City, Calif.). Primers were designed using Primer Express software v3.0 and primer efficiency verified by slope analysis to be 100%±2.5%. qRT-PCR was performed using an ABI 7500 fast system and data analyzed using the Δ^ct method (SDS software v3.0). Amplicon sizes were approximately 100 bp.
as §1
In FIG. 23A, bEnd.3 endothelial cells were activated for 2 hours with TNF-α (200 ng/ml) and (A) DP (100 μM) or vehicle (0.1% DMSO) for the final 45 minutes. PDE gene expression was then analyzed by qRT-PCR and the data presented as the mean+SEM of 3 independent experiments assayed in triplicate (*p<0.05, **p<0.001; unpaired t-test).
The data are shown as a mean±SEM percentage of vehicle control and represent 3 independent experiments assayed in triplicate (*p<0.05, * *p<0.001; unpaired t-test).

PDE1 = conditions: read-out: Potency (IC50) PDE1; cited from earlier work
[8] = Mus musculus, Splenocyte, 4 h, read-out: inhibition of CXCL12-induced migration

Ki (PDE4 [1]; purified PDE4): ~0.3 nM
Compound: COc1ccc(C(=O)Nc2c(Cl)cncc2Cl)cc1OC1CCCC1 [piclamilast]
concentration margin before any other PDE gene family is inhibited (PDE4 [1]; relative to PDE4 inhibition): more than 5 orders of magnitude | ability to reduce adhesion of activated T cells to endothelial cells ([2]; 45 minute incubation): no short term suppressive effect | effect on adhesion of Con A-stimulated splenocytes to endothelial cells [3]: not inhibited at all | effect on CXCL12-induced migration ([4]; Con A-stimulated splenocytes): no statistically significant effect; also recorded: not inhibited at all | IC50 (PDE4 [5]; read-out: IC50, PDE4): 1 nM

Compound: adenosine deaminase
reversal of the inhibitory effect of DP on T cell adhesion [2]: did not reverse | effect by itself on splenocyte migration ([4]; adenosine deaminase 1 U/ml, stimulated splenocytes): no effect

Compound: CXCL12: Recombinant mouse CXCL12, chemokine, chemoattractant for leukocytes
reversal of the inhibitory effect of DP on T cell adhesion [2]: did not reverse | effect on adhesion of Con A-stimulated splenocytes to endothelial cells [3]: did not increase | increase in number of migrating splenocytes ([4]; Con A-stimulated splenocytes, CXCL12 250 ng/ml in lower chamber, 4 hr): 2.5 fold | increase in number of migrating splenocytes ([6]; unstimulated splenocytes, CXCL12 250 ng/ml in lower chamber, 4 hr): 6.2 fold

Compound: Nc1ncnc2c1ncn2[C@@H]1O[C@@H]2COP(O)(=S)O[C@H]2[C@H]1O (single isomer, unassigned) [Rp-cAMPS, 3′,5′-cyclic monophosphorothioate, Rp-isomer]
reversal of dipyridamole inhibition of CXCL12-stimulated chemotaxis ([4]; Rp-cAMPS 1 mM with dipyridamole 100 μM): reversed; also recorded: reversal

Compound: COc1ccc(C2CNC(=O)C2)cc1OC1CCCC1 (centres unmarked) [rolipram]
lipopolysaccharide-stimulated release of TNF-α [7]: inhibit | adhesion of T cells (T cells; 8-48 hour treatment): blocked | adhesion to vascular ligands or endothelial cells (T cells; exposure for a short period of 4 hours): no effect | T cell adhesion (T cells; until after 8 hours of exposure): did not significantly inhibit | concentration above which specificity for PDE4 is lost (PDE4 [5]): […] | IC50 (PDE4 [5]; read-out: Potency (IC50) PDE4): […]

Compound: C=C[C@@]1(C)CC(=O)[C@]2(O)[C@@]3(C)[C@@H](O)CCC(C)(C)[C@@H]3[C@H](O)[C@H](OC(C)=O)[C@@]2(C)O1 [forskolin]
effect on CXCL12-induced migration ([4]; Con A-stimulated splenocytes): no effect at all | inhibition at 25 µM [6, 8]: 31%

Compound: CN(C(=O)CCCOc1ccc2[nH]c(=O)ccc2c1)C1CCCCC1 [Cilostamide]
IC50 (PDE3): 5 nM

Compound: CCCC(=O)Nc1ncnc2c1ncn2[C@@H]1O[C@@H]2COP(=O)(O)O[C@H]2[C@H]1OC(=O)CCC [dibutyryl cAMP]
reduction of adhesion of activated T cells to bEnd.3 endothelial cells ([2]; 45 minute incubation, DP 100 μM, dibutryl cAMP 500 μM, adenosine deaminase 1 U/ml): 81% | inhibition at 500 µM [4, 8]: 29% | reduction of ICAM-1 mRNA expression (bEnd.3 endothelial cells): 42% | increase of claudin-5 gene expression (bEnd.3 endothelial cells; 8-bromo-cAMP 500 μM): 70% | reduction of CXCL12 gene expression (bEnd.3 endothelial cells; 8-bromo-cAMP 500 μM): 48% | reduction of VCAM-1 gene expression (bEnd.3 endothelial cells; 8-bromo-cAMP 500 μM): 33% | inhibition at 500 µM [6, 8]: 54%

Compound: CCOC(=O)C1=C[C@]2(CC)CCCN3CCc4c(n1c1ccccc41)[C@@H]32 [Vinpocetine]
IC50 (PDE1): 5000 to 25000 nM

Compound: CC1CC(=O)NN=C1c1cc(-n2ccnc2)cs1 (centres unmarked) [motapizone]
ability to reduce adhesion of activated T cells to endothelial cells ([2]; 45 minute incubation): no inhibitory effect | effect on CXCL12-induced migration ([4]; Con A-stimulated splenocytes): no statistically significant effect; also recorded: not inhibited at all
